# Experiments:
# [1] = tested on: latent HIV-based retroviral vector in cell line; test: Screen of small molecule library on cell line containing a latent HIV-based retroviral vector, GFP expression; settings: different concentrations; FIG. 7
# Source text: We screened a library of 6,000 small molecules (library purchased from Chembridge, San Diego) using one of the cell lines containing a latent HIV-based retroviral vector. Viral expression was monitored by GFP expression, as described above. […] The results of a typical induction experiment in which we measured CFP expression in response to different concentrations of the two small molecules (Hit 1 and Hit2) are shown in FIG. 7. The structures of three representative active agents are shown below.
# [2] = tested on: latent HIV promoter (LTR-Tat-IRES-GFP vector) in Jurkat-derived cells; test: Reactivation of latent LTR-Tat-IRES-GFP vector in Jurkat cells/clones, GFP by flow cytometry; assay type: cell-based; settings: for ability to reactivate latent HIV expression (GFP-positive cells and mean fluorescence intensity): clones 82, A1, A7, A10, 10 nM TPA, 10 ng/ml TNF-α, 5 μg/ml PHA, 5 μg/ml anti-CD3, 400 nM TSA, 5 μM aza-dC 48 h
# Experimental: To obtain a random library of clones containing the vector LTR-Tat-IRES-GFP integrated, Jurkat cells were infected at an MOI (multiplicity of infection) of 0.1 followed by serial dilution and plating in 96-well plates. Individual clones obtained after 3 weeks were analyzed by flow cytometry for GFP expression. For the purification of latently infected cells, Jurkat cells were infected with the LTR-Tat-IRES-GFP viral stock at an MOI of 0.1 and kept in culture for at least 96 h. GFP-negative (GFP^−) and GFP-positive (GFP^+) cells were separated by fluorescence activated cell sorting (FACS) and further cultured. One week later, GFP^− cells were incubated with 10 nM TPA or 10 ng/ml TNF-α for 17 h.
# Jurkat cells were grown in RPMI 1640 medium (Mediatech Cellgro, Herndon, Va.) supplemented with 10% fetal bovine serum, 100 U/ml of penicillin, 100 μg/ml of streptomycin, and 2 mM L-glutamine at 37° C. under a 95% air/5% CO2 atmosphere. Peripheral blood mononuclear cells (PBMCs) were cultivated in the same medium supplemented with 100 U/ml human interleukin (hIL)-2 and were phytohemagglutinin (PHA)-stimulated (5 μg/ml) once every two weeks. 293T cells were grown under the same conditions as Jurkat cells in Dulbecco's modification of Eagle's medium (Mediatech Cellgro, Herndon, Va.). 293T cells were routinely transfected with calcium phosphate. Jurkat cells (10^7 cells/0.4 ml serum-free medium) were electroporated in 0.4-cm gap cuvettes at 250 V and […] (Gene Pulser II, Biorad, Hercules, Calif.). Plasmid DNA for transfections was purified with the Qiagen Plasmid Maxi kit, followed by phenol extraction and ethanol precipitation. To test the HIV promoter inducibility, Jurkat-derived clones were incubated for 17 h with 10 nM tetradecanoyl phorbol acetate (TPA), 10 ng/ml TNF-α, 5 μg/ml PHA, 1 μM ionomycin, 5 μg/ml anti-CD3 antibody, 400 nM Trichostatin A (TSA). Incubations with 5 μM aza-dC lasted for 48 h.
# (§1) Cells were washed in PBS and resuspended in PBS containing 1% paraformaldehyde. GFP fluorescence was measured with a FACScalibur machine (Becton Dickinson, San Jose, Calif.). A two narameter analysis to distinguish GFP-derived fluorescence from background fluorescence was used: CFP was measured in FL1 and cellular autofluorescence was monitored in FL2. Electronic compensation was applied during analysis. Analysis was gated on live cells according to forward and side scatter. A gate (R2) containing GFP-positive cells was drawn compared to an uninfected control, and the data shown refer to the percentage of cells in R2 or mean fluorescence intensity (MFI) of those cells. Results shown throughout the manuscript are representative three independent experiments, except when libraries of clones were analyzed. Cell sorting was carried out with a FACSVantage (Becton Dickinson, San Jose, Calif.).
# [3] = tested on: HIV transcription in latent cell lines; test: HIV-specific mRNA measurement by TaqMan PCR in latent cell lines; assay type: cell-based; settings: clone H2; +TNF-α
# Experimental: RNA was isolated using TRIzol (Invitrogen) followed by digestion with RQ1 DNase (Promega). First strand cDNA was synthesized using Superscript II (Invitrogen). Taqman PCR was performed on an ABIprism 7700 detector using the following primer/probe set: primer 1: 5′-[…]-3′ (SEQ ID NO:21); primer 2: 5′-[…]-3′ (SEQ ID NO:22); probe 5′-CTGGTAACTAGAGATCCC-3′ (SEQ LD NO:23). The GAPDH primer/probe set was purchased from Applied Biosystems.
# FIG. 1A-C. Enrichment and purification of HIV-latently infected cells by FACS. (A) A schematic representation of our enrichment protocol is shown. See text for details. The percentage of GFP-positive cells obtained after infection (4%) or after TNF-α treatment of GFP-cells (0.06%) is shown. Similar data were obtained with TPA. (B) Clonal cell lines isolated using the procedure described above were analyzed for CFP expression under basal and stimulated conditions (24 hr treatment with TNF-α). (C) mRNA levels were measured for HIV and for GAPDH using TaqMan PCR in untreated and TNF-α-treated cell lines. Results are expressed as a percentage of mRNA levels measured in Jurkat cells acutely infected with HIVNL4-3 (day 6 post-infection). Clone A72 is infected with an LTR-CFP construct (Jordan et al. (2001, supra), clone H2 is infected with the LTR-Tat-IRS-GFP vector while clones F11 and G10 are infected with HIV-R7/E^−/GFP.
# [4] = tested on: latent full-length HIV provirus (HIV-R7/E-/GFP) in Jurkat clones; test: HIV-specific p24 in culture supernatants of latent HIV-R7/E-/GFP clones; assay type: cell-based; settings: culture supernatant; for p24 (pg/ml): + TNF-α
# Source text: When the culture supernatants of the same clones were examined for HIV-specific p24 expression, no or low picogram amounts could be detected under basal conditions (Table I).
# [5] = tested on: latent full-length HIV provirus (HIV-R7/E-/GFP) in Jurkat clones; test: Western blotting of HIV-specific proteins in latent HIV-R7/E-/GFP clones; assay type: cell-based; settings: several clones; particularly gag p55 precursor
# Source text: Levels of viral mRNA after activation were similar to those measured after a productive HIV infection (compare clones F11 and G10 with NL4-3, FIG. 1C).
# [6] = tested on: latent full-length HIV provirus (HIV-R7/E-/GFP) in Jurkat cells; test: GFP expression in Jurkat cells/clones latently infected with full-length HIV-R7/E-/GFP, flow cytometry; assay type: cell-based; settings: for GFP Signal (MFI) / GFP-Positive (%): + TNF-α
# Experimental: as §1
# The HIV molecular clone (HIV-R7/E^−1/GFP) was constructed by introducing a frameshift mutation in the env gene (by filling-in NdeI site with T4 polymerase) in the backbone of HIV-R7/3/GCF. Bieniasz and Cullen (2000) J. Virol. 74:9868-9877.
# To confirm that HIV Latency can be established in the context of a full length provirus, we used a recombinant HIV molecular clone containing the GFP open reading frame in place of the Nef gene (Bieniasz and Cullen (2000) J. Virol. 74:9868-9877) (HIV-R7/E^−/GFP) (FIG. 5A). To restrict our analysis to a single infection cycle, the env gene was suppressed by introduction of a frameshift mutation. […]. We infected a culture of the lymphocytic cell line Jurkat with viral particles containing this HIV genome and used differential fluorescence-activated cell sorting based on GFP expression to isolate GFP-negative cells by FACS 4 days after infection (FIG. 5B). Based on our previous experiments, we predicted that this population harbored both uninfected cells and cells with transcriptionally silenced proviruses. To activate HIV expression, we treated this population with TNF-α and observed that a small fraction of the cell population (1.9%) became positive. These activated cells were purified by FACS based on GFP expression levels (FIG. 5B). These cells were both grown as a group and individually sorted for further characterization.
# FIG. 5. Establishment of latently infected cell lines with a full-length HIV provirus. (A) genome organization of a molecular clone of HIV encoding GFP and containing a frameshift mutation in env. (B) Schematic representation of protocol for enrichment of latently-infected cells after infection of Jurkat cells with HIV-R7/E^−/GFP) (see text for detail). (C) Clonal cell lines isolated using the procedure described above were analyzed for GFP expression under basal and stimulated conditions (24 hr treatment with TNF-α).
molecule,measurement,setting,value
CC1(C)Cc2ccccc2C(NNC(=O)c2ccccn2)=N1 [Hit2],induction of HIV expression as measured by increased GFP expression,[1],reproducibly lead to an induction of HIV expression
COc1cc(/C=N/NC(=O)c2cc(-c3ccccc3)n[nH]2)cc(OC)c1O [Hit 1],induction of HIV expression as measured by increased GFP expression,[1],reproducibly lead to an induction of HIV expression
CC(/C=C/C(=O)NO)=C\[C@@H](C)C(=O)c1ccc(N(C)C)cc1 [Trichostatin A],ability to reactivate latent HIV expression (GFP-positive cells and mean fluorescence intensity),[2],activated expression but to a lesser extent than NT-κB activators and in only some cell lines
"Nc1ncn([C@H]2C[C@H](O)[C@@H](CO)O2)c(=O)n1 [aza-dC, 5-axa-2-deoxycytidine]",ability to reactivate latent HIV expression (GFP-positive cells and mean fluorescence intensity),[2],little effect
phytohemagglutinin [PHA],ability to reactivate latent HIV expression (GFP-positive cells and mean fluorescence intensity),[2],induced HIV expression
tetradecanoyl phorbol acetate [TPA],GFP expression of individual latent clones after treatment,[2]; clonal cell lines 4 weeks after isolation,all clones were activated
same,ability to reactivate latent HIV expression (GFP-positive cells and mean fluorescence intensity),[2],strongest inducer tested
tumor necrosis factor alpha [TNF-α],"HIV mRNA levels, activated versus basal conditions",[3],activation of HIV transcription
same,p24 (pg/ml),[4]; Clone 6.3,"10,100 ± 4,573 pg/ml"
same,p24 (pg/ml),[4]; Clone 8.4,"32,967 ± 10,537 pg/ml"
same,p24 (pg/ml),[4]; Clone 9.2,"41,067 ± 9,100 pg/ml"
same,p24 (pg/ml),[4]; Clone 10.6,"85,500 ± 5,981 pg/ml"
same,p24 (pg/ml),[4]; Clone 15.4,"6,066 ± 1,960 pg/ml"
same,increase in p24 measurement versus basal conditions,[4]; several representative clones,greater than a thousand-fold increase
same,ability to reactivate latent HIV expression (GFP-positive cells and mean fluorescence intensity),[2],induced HIV expression
same,HIV protein expression by western blotting,[5],dramatic increase in HIV protein expression
same,GFP Signal (MFI),[6]; Clone 6.3,135 ± 43 MFI
same,GFP-Positive (%),[6]; Clone 6.3,27 ± 9%
same,GFP Signal (MFI),[6]; Clone 8.4,488 ± 74 MFI
same,GFP-Positive (%),[6]; Clone 8.4,77 ± 6%
same,GFP Signal (MFI),[6]; Clone 9.2,522 ± 61 MFI
same,GFP-Positive (%),[6]; Clone 9.2,75 ± 7%
same,GFP Signal (MFI),[6]; Clone 10.6,645 ± 45 MFI
same,GFP-Positive (%),[6]; Clone 10.6,96 ± 1%
same,GFP Signal (MFI),[6]; Clone 15.4,188 ± 34 MFI
same,GFP-Positive (%),[6]; Clone 15.4,46 ± 6%
same,fraction of the cell population that became GFP positive,"[6]; Jurkat infected with HIV-R7/E-/GFP, sorted GFP-negative population",1.9%
same,HIV expression (fraction of GFP positive cells and mean fluorescence intensity) in individual clones,[6]; individual HIV-R7/E-/GFP clones,HIV expression was increased in all clones
